Laboratory results: patent US11377632B2, “Production method for bacterial cells” (IDEMITSU KOSAN CO., LTD., priority 2017, dated 2022)

Test system: Bacillus subtilis ITB 105 strain (NITE BP-01727)
Test: Three-stage liquid culture with streptomycin added; colony count (CFU) and abnormal colony morphology on agar
Format: cell-based
Details: for Appearance (%) of abnormal colonies / CFU / Number of abnormal colonies / Number of normal colonies: third stage, 30 hour
Protocol: Using a 500 mL Erlenmeyer flask (with a baffle), 100 mL each of liquid medium containing the components of the medium listed in Table 1 was prepared, and then autoclave sterilization was performed. In order to avoid the Maillard reaction, glucose was separately sterilized and mixed aseptically.
The test sections were set as described in Table 2. According to the conditions for each test section, an aqueous solution of filter-sterilized streptomycin was aseptically added to the medium.
One platinum loop was taken from a colony of Bacillus subtilis ITB 105 strain (NITE BP-01727) grown on a common agar medium and inoculated, and then shake culture was performed at 30° C. and 150 rpm (first stage). Eighteen hours later, 1 mL of each culture solution was aliquoted and transferred to a fresh medium, and then shaking culture was performed in the same manner (second stage). After 24 hours, 1 mL of each culture solution was aliquoted and then transferred to a fresh medium, and then shaking culture was performed in the same manner (third stage). The third-stage culture solution was sampled after 30 hours.
The resulting culture solutions were each diluted 1×10^7 folds with sterile water, and 100 μL of the diluted solution was applied to a common agar medium and then cells were cultured overnight at 37° C. The number of colonies that had appeared was determined to calculate CFU. Colonies that had appeared and clearly differed in colony morphology compared with the parent strain on the basis of the criteria in Table 3 were determined as abnormal colonies and the number of the abnormal appearing colonies was determined and then the proportion thereof in the total number of colonies was calculated. As a result, in the three-stage culture, abnormal appearing colonies accounted for about 5% when no antibiotic was added.

[1] = Test section No. 2: streptomycin 5 ppm in first and second stage, none in third
[2] = Test section No. 3: streptomycin 10 ppm in first and second stage, none in third
[3] = Test section No. 4: streptomycin 15 ppm in first and second stage, none in third
[4] = Test section No. 5: streptomycin 20 ppm in first and second stage, none in third
[5] = Test section No. 6: streptomycin 30 ppm in first and second stage, none in third
[6] = Test section No. 7: streptomycin 30 ppm in first, second and third stage
[7] = streptomycin added in all of the first, second and third stages

[H]/N=C(/N)N[C@H]1[C@H](O)[C@@H](O)[C@H](O[C@@H]2O[C@@H](C)[C@](O)(C=O)[C@H]2O[C@@H]2O[C@@H](CO)[C@H](O)[C@@H](O)[C@@H]2NC)[C@@H](N/C(N)=N\[H])[C@@H]1O [Streptomycin, streptomycin]
Appearance (%) of abnormal colonies [1]: 0.0% | CFU [1]: 8.8e+09 mL⁻¹ | Number of abnormal colonies [1]: 0 | Number of normal colonies [1]: 88 | Appearance (%) of abnormal colonies [2]: 0.0% | CFU [2]: 1.09e+10 mL⁻¹ | Number of abnormal colonies [2]: 0 | Number of normal colonies [2]: 109 | Appearance (%) of abnormal colonies [3]: 0.0% | CFU [3]: 7e+09 mL⁻¹ | Number of abnormal colonies [3]: 0 | Number of normal colonies [3]: 70 | Appearance (%) of abnormal colonies [4]: 0.0% | CFU [4]: 8.2e+09 mL⁻¹ | Number of abnormal colonies [4]: 0 | Number of normal colonies [4]: 82 | Appearance (%) of abnormal colonies [5]: 0.0% | CFU [5]: 6.3e+09 mL⁻¹ | Number of abnormal colonies [5]: 0 | Number of normal colonies [5]: 63 | Appearance (%) of abnormal colonies [6]: 0.0% | CFU [6]: 4.9e+09 mL⁻¹ | Number of abnormal colonies [6]: 0 | Number of normal colonies [6]: 49 | Appearance of abnormal colonies [7]: no abnormal colony appeared | Number of appearing colonies and number of normal appearing colonies [7]: low | Productivity of bacterial cells (streptomycin added in all of the first, second and third stages, compared with Test section Nos. 2 to 6): lower than those of Test section Nos. 2 to 6 | Appearance of abnormal colonies (streptomycin added in the first and second stages, none in the third stage): no appearance of abnormal colonies was observed
